{
  "source": "patent US20100168225A1",
  "about": "“Small-Molecule Hepatitis C Virus (HCV) NS3/4A Serine Protease Inhibitors” (priority 2007, published 2010)",
  "molecular_target": "SARS 3CL^PRO (Severe acute respiratory syndrome coronavirus, UniProt P0C6X7)",
  "experiment": "biochemical",
  "data": [
    {"smiles": "O=c1ccc2ccc(O)c(O)c2o1", "note": "[Compound C10, Daphnetin]", "values": [
      {"measurement": "IC50", "setting": "ID50", "result": 168, "unit": "µM"}
    ]},
    {"smiles": "O=c1oc2cc(O)c(O)cc2cc1O", "note": "[Compound C11, 3-hydroxyesculetin]", "values": [
      {"measurement": "IC50", "setting": "ID50", "result": 97, "unit": "µM"},
      {"measurement": "IC50", "setting": "ID50 (μM) (by kinetic assay) SARS 3CL^PRO", "result": 96.6, "unit": "µM"}
    ]},
    {"smiles": "CC(=O)Nc1cc2cc(OC(C)=O)c(OC(C)=O)cc2oc1=O", "note": "[Compound C12, 3-aminoacyl-6,7-diacetoxycoumarin]", "values": [
      {"measurement": "IC50", "setting": "ID50", "result": 183, "unit": "µM"}
    ]},
    {"smiles": "CC(=O)Nc1cc2ccc(OC(C)=O)c(OC(C)=O)c2oc1=O", "note": "[Compound C22, 3-aminoacyl-7,8-diacetoxycoumarin]", "values": [
      {"measurement": "IC50", "setting": "ID50", "result": 184, "unit": "µM"}
    ]},
    {"smiles": "O=c1oc2c(O)c(O)ccc2cc1O", "note": "[Compound C21, 3,7,8-trihydroxycoumarin]", "values": [
      {"measurement": "IC50", "setting": "ID50", "result": 100, "unit": "µM"}
    ]}
  ]
}
